# Results: patent US7071168B2, “Anti-cancer compounds and methods related thereto” (The Regents of the University of Colorado, priority 1998, dated 2006)
# Tests used:
# SCLC strain SHP-77 = test: Colorimetric tetrazolium (MTT) assay for cell survival, SCLC strain SHP-77; type: cell-based, human
# Method: In general, Anti-bradykinin activity was determined by the classical guinea pig ileum assay and on Chinese hamster ovary (CHO) cells expressing cloned human bradykinin B2 receptors. Anti-tumor activity was determined on cultured human cancer cell lines using the standard tetrazolium (MTT) assay.
# Cell growth and survival were measured by a rapid colorimetric assay based on the tetrazolium salt MTT (3-(4,5-dimethylthiazol-2-yl)-2,5-diphenyl tetrazolium bromide) (Mosmann, J Immunol. Methods 65: 55–63, 1983, with minor modifications). Briefly, 1,000 normal lung fibroblasts or normal epithelial BEAS-2B cells, 1,000 or 5,000 viable non-SCLC cells or 10,000 viable SCLC cells were plated in 100 μL of growth medium in 96-well flat-bottomed microtiter plates. Cells were incubated overnight to allow recovery. Compounds to be tested were added to the cells in triplicate in a range of concentrations and the cells were incubated at 37° C., 5% CO2, with 100% humidity. Control cells were treated in the same way without antagonists. […] Plates were incubated for 4 days, allowing sufficient time for cell replication and compound-induced cell death to occur. On day 5, 25 μL of a 2 mg/mL solution of MTT (Sigma) dissolved in RMPI-1640was added to each well. The plate was incubated for 4 h at 37° C. The supernate was removed and the blue formazan complex was dissolved by adding 100 μL of 0.02 N HCl in 75% isopropanol to all wells. Absorbance was immediately determined using a scanning multiwell plate reader. B9870 caused 50% cell death at a concentration of 0.15 μM under these conditions.
# [1] = system: bradykinin response of isolated guinea pig ileum; test: Anti-bradykinin activity on isolated guinea pig ileum
# How it was run: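 Bradykinin concentration-effect curves were run in the absence and presence of compound. Tissue: 25 mm terminal ileum from male Hartley guinea pigs fasted overnight, held at 1 g tension in O2/CO2-bubbled Krebs' solution after 1 h equilibration.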
# [2] = isolated guinea pig ileum, pD2 of bradykinin is 7.4, higher numbers indicate higher potency
# [3] = Table 1, higher numbers indicate higher potency
Compound,MTT: ED50 for killing of SCLC strain SHP-77 in vitro (SCLC strain SHP-77; SCLC strain SHP-77 in vitro),"GPI: pA2 for bradykinin antagonist activity on isolated guinea pig ileum [1, 2]","MTT: ED50 for killing of SCLC strain SHP-77 in vitro (SCLC strain SHP-77; Table 1, SHP-77, MTT, 4 days)","GPI: pA2 for bradykinin antagonist activity on isolated guinea pig ileum [1, 3]",also measured
COC(=O)C1(NC(=O)[C@H](Cc2ccc3ccccc3c2)NC(=NC2CCCCC2)NC2CCCCC2)CC(C)(C)NC(C)(C)C1 [M244A],12 µM,5.0,–,–,–
CN(C(=O)C(Cc1ccc(OCc2c(Cl)cccc2Cl)cc1)NC(=O)C=Cc1c(F)c(F)c(F)c(F)c1F)C1CC(C)(C)NC(C)(C)C1 (centres unmarked) [M592],1.5 µM,4.9,–,–,–
CC1(C)CC(NC(=O)[C@@H](Cc2ccc3ccccc3c2)NC(=NC2CCCCC2)NC2CCCCC2)CC(C)(C)N1 [M262],6 µM,5.3,–,–,–
F5c-PaF(Ppa)-Arg [M720],–,–,Inact,4.8,–
CC1(C)CC(NC(=O)[C@H](Cc2c(F)c(F)c(F)c(F)c2F)NC(=NC2CCCCC2)NC2CCCCC2)CC(C)(C)N1 [M240],32 µM,5.1,–,–,–
F5c-PFF-Arg [M718],–,–,9 µM,5.1,–
CN(C)c1cccc2c(S(=O)(=O)NC(Cc3cc(I)c(OCc4c(Cl)cccc4Cl)c(I)c3)C(=O)N(C)C3CC(C)(C)NC(C)(C)C3)cccc12 (centres unmarked) [M666],1.3 µM,5.0,–,–,–
CC1(C)C=C(C(=O)NCCNC(=O)C(Cc2ccc3ccccc3c2)NC(=O)C=Cc2c(F)c(F)c(F)c(F)c2F)C(C)(C)N1 (centres unmarked) [M268],10 µM,5.2,–,–,–
F5c-DArg-Arg-Add-Ser-DIgl-Oic-Arg [M860],–,–,6 µM,5.4,–
DDD-(DArg-Arg-Aud-Pac-PaF(Fbz)-Arg)2 [M734],–,–,1.8 µM,5.3,–
(Gun)2-BApG-DArg-Arg-Pro-Hyp-Gly-Igl-Ser-DIgl-Oic-Arg [B10092],–,–,>20 µM,8.7,–
CC1(C)CC(NC(=O)[C@H](Cc2ccc3ccccc3c2)NC(=N)CCCCCCCCCCCCC(=N)N[C@@H](Cc2ccc3ccccc3c2)C(=O)NC2CC(C)(C)NC(C)(C)C2)CC(C)(C)N1 [M254-1],5 µM,5.1,–,–,–
SUB-(DArg-Arg-Eac-Ser-DF5f-Nc7G-Arg)2 [M1024],–,–,14 µM,7.2,–
F5c-MFF-Arg [M826],–,–,76 µM,Inact,–
SUIM-(DArg-Arg-Pro-Hyp-Gly-Igl-Ser-DIgl-Oic-Arg-NH2)2 [B10082],–,–,0.7 µM,7.2,–
F5c-DArg-Arg-Aud-DIgl-hPhe-Arg [M774],–,–,8 µM,Inact,–
Aca-c[DArg-Arg-Pro-Hyp-Gly-Thi-Ser-Nig-Oic-Arg] [B10304],–,–,–,–,"MTT: ED50 for killing of SCLC strain SHP-77 in vitro (SCLC strain SHP-77; Table 3, cyclic peptides): Inact; GPI: pA2 for bradykinin antagonist activity on isolated guinea pig ileum ([1]; Table 3, cyclic peptides): 6.4"
DDD-(DIgl-hPhe-Arg)2 [M776],–,–,30 µM,5,–
F5c-DArg-Arg-Aud-Ser-DIgl-Oic-Arg [M856],–,–,21 µM,5.4,–
CC1(C)CC(NC(=O)C(Cc2ccc3ccccc3c2)NC(=O)CCSSCCC(=O)NC(Cc2ccc3ccccc3c2)C(=O)NC2CC(C)(C)NC(C)(C)C2)CC(C)(C)N1 (centres unmarked) [M286],24 µM,5.1,–,–,–

Compound,MTT: ED50 for killing of SCLC strain SHP-77 in vitro (SCLC strain SHP-77; SCLC strain SHP-77 in vitro),"GPI: pA2 for bradykinin antagonist activity on isolated guinea pig ileum [1, 2]","MTT: ED50 for killing of SCLC strain SHP-77 in vitro (SCLC strain SHP-77; Table 1, SHP-77, MTT, 4 days)","GPI: pA2 for bradykinin antagonist activity on isolated guinea pig ileum [1, 3]",also measured
CCOC(=O)N1CCC(NC(=O)C(Cc2ccc3ccccc3c2)NC(=O)C=Cc2ccc(N)cc2)CC1 (centres unmarked) [M604],43 µM,4.5,–,–,–
Ppa-hPhe-Arg [M708],–,–,Inact,5.8,–
CC1(C)CC(NC(=O)C(Cc2ccc3ccccc3c2)NC(=O)c2nc(Cl)c(Cl)c(N)c2Cl)CC(C)(C)N1 (centres unmarked) [M302],3.5 µM,5.2,–,–,–
DDD-(DArg-Arg-Aud-DTic-hPhe-Arg)2 [M770],–,–,8 µM,Inact,–
CC1(C)CC(NC(=O)[C@@H](Cc2ccc3ccccc3c2)NC(=NC2CCCCC2)NC2CCCCC2)CC(C)(C)N1 [M246],>50 µM,5.7,–,–,–
c[DArg-Arg-Aud-Ser-DF5F-Oic-Arg] [M876],–,–,–,–,"MTT: ED50 for killing of SCLC strain SHP-77 in vitro (SCLC strain SHP-77; Table 3, cyclic peptides): 22.5 µM; GPI: pA2 for bradykinin antagonist activity on isolated guinea pig ileum ([1]; Table 3, cyclic peptides): 5.4"
c[DArg-Arg-Ava-Ser-DIgl-PFF-Arg] [M902],–,–,–,–,"MTT: ED50 for killing of SCLC strain SHP-77 in vitro (SCLC strain SHP-77; Table 3, cyclic peptides): 30 µM; GPI: pA2 for bradykinin antagonist activity on isolated guinea pig ileum ([1]; Table 3, cyclic peptides): 5.5"
CN(C(=O)C(Cc1ccc(OCc2c(Cl)cccc2Cl)cc1)NC(=O)C=Cc1c(F)c(F)c(F)c(F)c1F)C1CC(C)(C)N(C)C(C)(C)C1 (centres unmarked) [M622],1.2 µM,5.7,–,–,–
CC1(C)CC(NC(=O)C(Cc2ccc3ccccc3c2)NC(=O)OC(C)(C)C)CC(C)(C)N1 (centres unmarked) [M288],Inact,5.2,–,–,–
CN(C(=O)C(Cc1cc(I)c(OCc2c(Cl)cccc2Cl)c(I)c1)NC(=O)C=Cc1c(F)c(F)c(F)c(F)c1F)C1CC(C)(C)NC(C)(C)C1 (centres unmarked) [M664],1.2 µM,5.0,–,–,–
DDD-(DArg-Arg-Aud-DTic-Oic-Arg)2 [M790],–,–,1.7 µM,Inact,–
CC1(C)CC(NC(=O)Cc2ccc(NC(=NC3CCCCC3)NC3CCCCC3)cc2)CC(C)(C)N1 [M266],42 µM,4.8,–,–,–
O=C(NC1CN2CCC1CC2)C(Cc1ccc2ccccc2c1)NC(=NC1CCCCC1)NC1CCCCC1 (centres unmarked) [M18],30 µM,6.6,–,–,–
CC1(C)CC(NC(=O)C(Cc2ccc3ccccc3c2)NC(=O)C=Cc2ccc(N)cc2)CC(C)(C)N1 (centres unmarked) [M308],>75 µM,5.0,–,–,–
F5c-DArg-Arg-Eac-Ser-DIgl-Oic-Arg [M852],–,–,Inact,5.9,–
CC1(C)CC(NC(=O)C(Cc2ccc3ccccc3c2)NC(=O)C=Cc2ccc(C(F)(F)F)cc2)CC(C)(C)N1 (centres unmarked) [M312],3.2 µM,5.5,–,–,–
c[DArg-Arg-Aud-DIgl-PFF-Arg] [M850],–,–,–,–,"MTT: ED50 for killing of SCLC strain SHP-77 in vitro (SCLC strain SHP-77; Table 3, cyclic peptides): 1.4 µM; GPI: pA2 for bradykinin antagonist activity on isolated guinea pig ileum ([1]; Table 3, cyclic peptides): 5.1"
TDIM-(DArg-Arg-Pro-Hyp-Gly-Igl-Ser-DIgl-Oic-Arg)2 [B10100-2],–,–,1 µM,8.0,–
BApG-DArg-Arg-Pro-Hyp-Gly-Igl-Ser-DIgl-Oic-Arg [B10084],–,–,>20 µM,8.1,–
CC1(C)CC(NC(=O)C(Cc2ccc3ccccc3c2)NC(=O)OC(C)(C)C)CC(C)(C)N1 (centres unmarked) [M288A],>85 µM,5.2,–,–,–
